Data taken from article PMC5316935, “Mangiferin from Pueraria tuberosa reduces inflammation via inactivation of NLRP3 inflammasome” (Scientific Reports, 2017).

Test system: T1, COX-2
T1 construct: gene Ptgs2
Assay: chromogenic TMPD oxidation assay of COX-2 activity; RAW […] cells per figure legend
Assay type: biochemical

- IC50: 40 µM
SMILES: O=c1c2cc(O)c(O)cc2oc2cc(O)c([C@@H]3O[C@H](CO)[C@@H](O)[C@H](O)[C@H]3O)c(O)c12 [PT-Mangiferin, Mangiferin]
